Experimental data as given in ChEMBL document CHEMBL4411257, “Inhibitors of Melanogenesis: An Updated Review” (J Med Chem, 2018).

Assays:
Tyrosinase [1] = molecular target: T1, Tyrosinase (Agaricus bisporus, UniProt O42713); assay: Inhibition of Agaricus bisporus tyrosinase using L-tyrosine as substrate after 30 mins by spectrophotometric analysis
T1 sequence (O42713 whole entry): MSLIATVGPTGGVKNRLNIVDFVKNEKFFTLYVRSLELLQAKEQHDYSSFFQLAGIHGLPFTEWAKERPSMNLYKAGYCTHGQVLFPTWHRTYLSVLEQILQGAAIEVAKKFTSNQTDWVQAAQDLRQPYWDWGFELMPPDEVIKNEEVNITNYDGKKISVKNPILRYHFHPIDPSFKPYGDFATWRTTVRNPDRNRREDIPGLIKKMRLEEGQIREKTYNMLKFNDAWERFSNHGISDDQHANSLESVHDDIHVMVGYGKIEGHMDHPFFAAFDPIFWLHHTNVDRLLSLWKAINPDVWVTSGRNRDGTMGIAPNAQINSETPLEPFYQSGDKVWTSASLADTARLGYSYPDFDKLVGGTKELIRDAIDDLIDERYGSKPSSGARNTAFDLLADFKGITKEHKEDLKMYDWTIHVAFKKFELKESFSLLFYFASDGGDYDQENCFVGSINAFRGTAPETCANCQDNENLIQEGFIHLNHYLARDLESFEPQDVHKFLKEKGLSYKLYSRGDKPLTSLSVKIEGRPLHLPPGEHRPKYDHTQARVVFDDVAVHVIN

Tyrosinase [2] = molecular target: T2, Tyrosinase (Mus musculus, UniProt P11344); assay type: cell-based
T2 sequence (P11344 whole entry): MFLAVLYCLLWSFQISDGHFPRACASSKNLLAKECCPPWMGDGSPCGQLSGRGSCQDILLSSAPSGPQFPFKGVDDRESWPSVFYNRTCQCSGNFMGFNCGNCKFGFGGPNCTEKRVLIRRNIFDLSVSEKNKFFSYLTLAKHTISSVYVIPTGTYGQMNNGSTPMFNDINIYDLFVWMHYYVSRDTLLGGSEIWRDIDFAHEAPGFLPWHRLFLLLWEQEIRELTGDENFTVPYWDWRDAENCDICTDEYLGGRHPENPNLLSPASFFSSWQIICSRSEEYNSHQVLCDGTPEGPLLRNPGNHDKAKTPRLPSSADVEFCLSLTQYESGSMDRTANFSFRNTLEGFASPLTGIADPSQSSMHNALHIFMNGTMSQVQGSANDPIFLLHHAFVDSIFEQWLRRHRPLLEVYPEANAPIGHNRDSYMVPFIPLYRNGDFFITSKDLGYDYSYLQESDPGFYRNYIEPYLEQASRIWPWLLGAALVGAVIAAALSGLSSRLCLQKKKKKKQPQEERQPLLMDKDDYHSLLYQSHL
Description: Inhibition of tyrosinase in mouse B16F10 cells assessed as reduction in melanin synthesis after 2 hrs by spectrophotometric analysis

Tyrosinase [3] = molecular target: T1, Tyrosinase; assay: Inhibition of Agaricus bisporus tyrosinase using L-tyrosine as substrate after 60 mins by spectrophotometric analysis
Tyrosinase [4] = molecular target: T2, Tyrosinase; assay: Inhibition of tyrosinase in mouse B16 cells; assay type: cell-based
Tyrosinase [5] = molecular target: T2, Tyrosinase; assay: Inhibition of tyrosinase in mouse B16 cells assessed as reduction in alpha-MSH induced melanin synthesis; assay type: cell-based
[6] = molecular target: T3, Tyrosinase (Mus musculus) (UniProt P11344); assay: Inhibition of tyrosinase in mouse B16 cells assessed as reduction in alpha-MSH induced melanin synthesis at 30 uM relative to control; assay type: cell-based
T3 sequence (whole entry): T2 sequence (P11344 whole entry)

Tyrosinase [7] = molecular target: T4, Tyrosinase (Homo sapiens, UniProt P14679)
T4 sequence (P14679 whole entry): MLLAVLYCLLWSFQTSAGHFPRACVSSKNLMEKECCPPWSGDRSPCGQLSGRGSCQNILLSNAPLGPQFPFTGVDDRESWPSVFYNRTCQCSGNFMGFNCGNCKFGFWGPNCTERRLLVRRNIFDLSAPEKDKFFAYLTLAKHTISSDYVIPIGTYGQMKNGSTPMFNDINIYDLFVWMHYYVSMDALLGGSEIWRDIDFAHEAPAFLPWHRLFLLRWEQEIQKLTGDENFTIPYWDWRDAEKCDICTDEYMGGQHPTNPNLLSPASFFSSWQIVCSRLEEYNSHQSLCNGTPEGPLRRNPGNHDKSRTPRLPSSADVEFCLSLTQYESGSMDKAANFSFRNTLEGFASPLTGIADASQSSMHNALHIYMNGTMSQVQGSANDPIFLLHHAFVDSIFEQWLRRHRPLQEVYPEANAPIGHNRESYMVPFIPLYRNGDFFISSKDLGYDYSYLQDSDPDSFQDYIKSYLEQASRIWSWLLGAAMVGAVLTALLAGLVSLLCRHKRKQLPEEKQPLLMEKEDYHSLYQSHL

[8] = molecular target: T5, Tyrosinase (Homo sapiens) (UniProt P14679); assay: Potency index, ratio of kojic acid IC50 to compound IC50 for human tyrosinase
T5 sequence (whole entry): T4 sequence (P14679 whole entry)

Tyrosinase [9] = molecular target: T4, Tyrosinase; remark: listed apart in the source
Tyrosinase [10] = molecular target: T4, Tyrosinase; assay: Inhibition of tyrosinase (unknown origin) assessed as reduction in diphenolase activity
Tyrosinase [11] = molecular target: T4, Tyrosinase; assay: Inhibition of tyrosinase (unknown origin) assessed as reduction in monophenolase activity
[12] = molecular target: T5, Tyrosinase (Homo sapiens); assay: Inhibition of tyrosinase in human epidemal melanocytes assessed as reduction in melanin formation at 1 uM; assay type: cell-based
Tyrosinase (Danio rerio) = molecular target: T6, Tyrosinase (Danio rerio) (UniProt A0A8M1PAD4); assay: Inhibition of tyrosinase in zebrafish assessed as reduction in pigmentation level at 10 uM
T6 sequence (whole entry): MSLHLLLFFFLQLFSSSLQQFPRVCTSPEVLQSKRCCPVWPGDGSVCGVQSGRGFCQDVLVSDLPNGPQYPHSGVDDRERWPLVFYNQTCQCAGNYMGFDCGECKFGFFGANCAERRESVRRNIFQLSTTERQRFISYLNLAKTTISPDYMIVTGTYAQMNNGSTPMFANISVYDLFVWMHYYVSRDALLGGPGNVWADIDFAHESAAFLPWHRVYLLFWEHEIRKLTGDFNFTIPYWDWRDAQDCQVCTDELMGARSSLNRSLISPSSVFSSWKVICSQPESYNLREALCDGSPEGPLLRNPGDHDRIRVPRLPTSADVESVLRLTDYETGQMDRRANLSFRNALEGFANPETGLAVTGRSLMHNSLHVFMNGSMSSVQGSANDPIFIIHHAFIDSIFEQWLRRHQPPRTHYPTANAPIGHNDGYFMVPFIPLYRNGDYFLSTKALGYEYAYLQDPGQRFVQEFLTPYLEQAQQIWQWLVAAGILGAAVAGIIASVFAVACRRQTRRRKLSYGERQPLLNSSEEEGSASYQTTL

[13] = molecular target: T5, Tyrosinase (Homo sapiens); assay: Inhibition of human tyrosinase at 1 uM using L-tyrosine as substrate after 30 mins by ELISA relative to control
[14] = Cytotoxicity against mouse B16 cells assessed as cell viability at 1000 uM after 48 hrs by MTT assay relative to control; assay type: cell-based; details: read-out: Activity
Tyrosinase [15] = molecular target: T1, Tyrosinase
Description: Inhibition of mushroom tyrosinase

Tyrosinase [16] = molecular target: T4, Tyrosinase; assay: Inhibition of human tyrosinase after 120 mins
[17] = molecular target: T7, Tyrosinase (Agaricus bisporus) (UniProt O42713); assay: Inhibition of Agaricus bisporus tyrosinase at 1000 uM relative to control
T7 sequence (whole entry): T1 sequence (O42713 whole entry)

Tyrosinase [18] = molecular target: T4, Tyrosinase; assay: biochemical
Description: Inhibition of recombinant human tyrosinase expressed in baculovirus infected Sf9 cells using L-DOPA as substrate by spectrophotometric analysis

Tyrosinase [19] = molecular target: T2, Tyrosinase
Description: Inhibition of tyrosinase in mouse B16 cells assessed as reduction in melanin synthesis after 1 hr

[20] = molecular target: T5, Tyrosinase (Homo sapiens); assay: Competitive inhibition of recombinant human tyrosinase expressed in baculovirus infected Sf9 cells using L-DOPA as substrate by double-reciprocal plot analysis

## Cc1ccc(S(=O)(=O)Oc2ccccc2/N=N/c2ccc(O)cc2)cc1
Tyrosinase [1]
  IC50: 201 µM

## Oc1ccc(-c2nc(-c3ccncc3)c(-c3ccc(F)cc3)[nH]2)cc1 [SB-202190]
Tyrosinase [2]
  IC50: 0.03 µM

## COc1ccc(/N=C/c2ccc(O)cc2O)cc1
Tyrosinase [1]
  IC50: 51.5 µM

## Oc1ccc(/C=N/c2ccccc2)cc1
Tyrosinase [3]
  IC50: 145 µM

## OC[C@H]1O[C@@H](Oc2cc(O)cc(/C=C/c3ccc(O[C@@H]4O[C@H](CO)[C@@H](O)[C@H](O)[C@H]4O)cc3O)c2)[C@H](O)[C@@H](O)[C@@H]1O [MULBERROSIDE A]
Tyrosinase [4]
  IC50: > 100 µM

## COc1ccc(/C=N/c2ccccc2)cc1
Tyrosinase [3]
  IC50: 212 µM

## Oc1cc(O)cc(CCc2ccc(O)cc2O)c1
Tyrosinase [4]
  IC50: 0.3 µM

## C[S+]([O-])c1ccc(-c2nc(-c3ccncc3)c(-c3ccc(F)cc3)[nH]2)cc1 (stereo not given) [SB-203580]
Tyrosinase [2]
  IC50: 0.034 µM

## CC(C)=C/C=C1\O[C@@H]2CC(C)=CC(=O)[C@@H]2[C@]1(C)O [BISABOLANGELONE]
Tyrosinase [5]
  IC50: 9 µM
[6]
  inhibition: 99%

## COc1ccc(/N=C/c2ccc(O)c(O)c2)cc1
Tyrosinase [1]
  IC50: 61.7 µM

## CCCCc1ccc(O)cc1O [RUCINOL]
Tyrosinase [7]
  IC50: 21 µM
[8]
  Ratio IC50: 20

## C=C(C)C(=O)Cc1c(-c2ccc(O)cc2O)oc2c3c(cc(O)c2c1=O)OC(C)(C)C=C3
Tyrosinase [9]
  IC50: 290 µM

## Oc1ccc(O)cc1 [HYDROQUINONE]
Tyrosinase [7]
  IC50: 4400 µM

## Oc1ccc(/N=C/c2ccc(O)c(O)c2)cc1
Tyrosinase [1]
  IC50: 17.2 µM

## CCCCCCn1cc(O)c(=O)cc1COC(=O)[C@@H](N)Cc1ccccc1
Tyrosinase [10]
  IC50: 42.8 µM
Tyrosinase [11]
  IC50: 19.2 µM

## CCCCCCCCn1cc(O)c(=O)cc1COC(=O)[C@@H](N)Cc1ccccc1
Tyrosinase [10]
  IC50: 12.6 µM
Tyrosinase [11]
  IC50: 12.6 µM

## Oc1ccc(/N=N/c2ccccc2O)cc1
Tyrosinase [1]
  IC50: 44.1 µM

## O=C1C[C@@H](c2ccc(O)cc2O)Oc2cc(O)cc(O)c21
Tyrosinase [9]
  IC50: 0.98 µM

## COc1cc([N+](=O)[O-])ccc1/C=C/C(=N\O)c1ccccc1O
Tyrosinase [9]
  IC50: 4.77 µM

## C=C1OC(=O)/C(=C\CCCCCCCCCCCCC)[C@H]1O
[12]
  inhibition: 40%
Tyrosinase (Danio rerio)
  inhibition: 30%
[13]
  inhibition: 50%

## CC(C)=CCC[C@](C)(O[C@@H]1O[C@H](CO[C@@H]2O[C@H](CO)[C@@H](O)[C@H](O)[C@H]2O)[C@@H](O)[C@H](O)[C@H]1O)[C@H]1CC[C@]2(C)[C@@H]1[C@H](O)C[C@@H]1[C@@]3(C)CC[C@H](O[C@@H]4O[C@H](CO)[C@@H](O)[C@H](O)[C@H]4O[C@@H]4O[C@H](CO)[C@@H](O)[C@H](O)[C@H]4O)C(C)(C)[C@@H]3CC[C@]12C [GINSENOSIDE RB1]
[14]
  viability at 48 h, 1000 µM: 4.67%

## O=C1/C(=C/c2ccc(O)cc2)Oc2cccc(O)c21
Tyrosinase [15]
  IC50: 31.7 µM

## CN(C)c1ccc(/C=C/C(=N\O)c2ccccc2O)cc1
Tyrosinase [9]
  IC50: 7.89 µM

## O=C(N[C@@H](Cc1ccccc1)C(=O)OCc1cc(=O)c(O)c[nH]1)OCc1ccccc1
Tyrosinase [10]
  IC50: 2.79 µM
Tyrosinase [11]
  IC50: 1.95 µM

## N[C@@H](Cc1ccccc1)C(=O)N[C@@H](Cc1ccccc1)C(=O)OCc1cc(=O)c(O)c[nH]1
Tyrosinase [10]
  IC50: 26.2 µM
Tyrosinase [11]
  IC50: 8.97 µM

## Oc1cccc(/C=C/c2ccc(O)cc2O)c1
Tyrosinase [4]
  IC50: 0.8 µM

## O=C(O)/C=C/c1ccc(O)cc1 [COUMARIC ACID]
Tyrosinase [16]
  IC50: 3 µM

## COc1ccc(NC(=O)/C=C/c2ccc(O)c(O)c2)cc1
[17]
  inhibition: 36.8%

## CC(C)=CCc1c(O)ccc(C[C@@H]2[C@H](c3c(O)ccc(C(=O)/C=C/c4ccc(O)cc4O)c3O)C=C(C)C[C@H]2c2ccc(O)cc2O)c1O
Tyrosinase [9]
  IC50: 4.62 µM

## O=C1/C(=C/c2ccc(=O)n(O)c2)Oc2cc(O)cc(O)c21
Tyrosinase [18]
  IC50: 30 µM

## O=C(/C=C/c1ccc(O)cc1O)c1ccc(O)cc1O
Tyrosinase [19]
  IC50: 5 µM
Tyrosinase [9]
  IC50: 0.07 to 0.21 µM

## Oc1ccccc1/C=N/c1ccccc1 [2-((PHENYLIMINO)METHYL)PHENOL]
Tyrosinase [3]
  IC50: 250 µM

## Oc1cc(O)cc(-c2cc3ccc(O)cc3o2)c1 [MORACIN M]
Tyrosinase [9]
  IC50: 8 µM

## O=C1/C(=C/c2ccc(O)cc2)Oc2cc(O)ccc21
Tyrosinase [15]
  IC50: 38.4 µM

## O=C1/C(=C/c2ccc(O)cc2)Oc2cc(O)cc(O)c21
Tyrosinase [15]
  IC50: 38.7 µM

## CC(C)=CCc1c(O)ccc(C(=O)/C=C/c2ccc(O)cc2O)c1O [MORACHALCONE A]
Tyrosinase [19]
  IC50: 3.8 µM
Tyrosinase [9]
  IC50: 0.08 to 0.82 µM

## CCCCCCCCCCCCC/C=C1\C(=O)O[C@@](C)(OC)[C@@H]1O
[12]
  inhibition: 40%
Tyrosinase (Danio rerio)
  inhibition: 25%
[13]
  inhibition: 50%

## Cc1ccc(S(=O)(=O)Oc2ccccc2/N=N/c2ccc(O)cc2O)cc1
Tyrosinase [1]
  IC50: 17.9 µM

## Oc1ccc(/C=C/c2cc(O)cc(O)c2)cc1 [RESVERATROL]
Tyrosinase [9]
  IC50: 250 µM

## O=C1/C(=C/c2ccc(=O)n(O)c2)Oc2cc(O)ccc21
Tyrosinase [15]
  IC50: 1.5 µM
[20]
  Kic: 0.35 µM

## C/C(=C\Cc1c(O)ccc(C(=O)/C=C/c2ccc(O)cc2O)c1O)CO
Tyrosinase [19]
  IC50: 4 µM
Tyrosinase [9]
  IC50: 0.17 µM
